Source: patent US20070135470A1, “Utilization of vinpocetine to avoid complications in particular those associated to hearing which occur with epilepsy, and treatment thereof” (UNIVERSIDAD NACIONAL AUTONOMA DE MEXICO, priority 2003, published 2007)

What was measured:
[1] = system: guinea pig treated with amikacin; conditions: high dose of amikacin; Nekrassov and Sitges 2000; cited from earlier work
[2] = system: epilepsy induced by 4-AP in guinea pigs; test: ABR wave parameters (amplitude, latency) in 4-AP-induced epilepsy; format: in vivo, guinea pig; conditions: 100 dB
Description: (§1) Experiments were performed in pigmented adult male guinea pigs initially weighing 349±38 g. ABRs recordings were used to evaluate the hearing status of each animal and EEG recordings to evaluate changes in cortical excitability. The ABR and EEG recordings were obtained following a method that we have previously reported (Nekrassov and Sitges, 2003). The Institutional Animal Use and Care Committee approved all experimental procedures.
(§2) Three types of recordings were performed in the anaesthetized animals, namely the ABR recordings elicited by a stimulus of high intensity (100 dB), the ABR recordings for determination of the auditory threshold and the EEG recordings.
(§3) Determination of ABR wave parameters. The latency and amplitude of each wave component of the ABR elicited by a stimulus of 100 dB with pure tone frequencies of 4 and 8 kHz was measured in all the ABR recordings obtained under the different experimental conditions at the specified times. The latency of each ABR wave (in ms) refers to the time interval between the onset of the auditory stimulus and the positive peak of the wave. The onset of the stimulus is indicated by the vertical arrow at the bottom of the recordings on FIG. 1. The peak amplitude (in μV) of each wave of the ABR is the difference between the positive peak of the wave and the reference baseline (trace between the stimulus and the appearance of the first ABR wave on FIG. 1).
(§4) Student's t-test was used for the evaluation of the differences between results obtained before and at the specified times after the injection of the convulsing agents. The criterion for statistical significance for all measures was P≦0.05. All data are expressed as means±standard error of the mean. In figures and tables the symbol * is used for indicating statistic significant differences.
(§5) Five guinea pigs were entered into the study. One hour after injecting guinea pigs with vehicle (acidified saline used to dissolve vinpocetine) the animals were anaesthetized and a first set of ABR and EEG recordings was taken before the injection (i.p) of the convulsing agent, 4-AP. The animals were injected with 4-AP (2 mg/kg) and about 20 min after injecting 4-AP (ictal period) the EEG recording was taken. Then the other series of ABR and EEG recordings were taken at specific times within the post-ictal period. After two weeks the same series of recordings were repeated but instead vehicle the animals were injected with vinpocetine (2 mg/kg) 1 hour before the injection of 4-AP.

[3] = system: epileptic cortical activity induced by PTZ in guinea pigs; test: EEG recordings of cortical activity in PTZ-induced epilepsy; format: in vivo, guinea pig; conditions: ictal (about 2 min) and post-ictal (10, 20, 30, 50 min) periods; vinpocetine 2 mg/kg 4 h before PTZ; FIGS. 3, 4
Description: as §1, §2
(§6) Eight male guinea pigs were entered into this study. PTZ was dissolved in saline and vinpocetine in a saline acidified (with HCl) adjusted to pH 4 (with NaOH). Four hours after injecting guinea pigs with vehicle (acidified saline used to dissolve vinpocetine) the animals were anaesthetized and a first set of ABR and EEG recordings was taken before the injection (i.p) of the convulsing agent, PTZ. The animals were injected with PTZ (100 mg/kg) and about 2 min after injecting PTZ (ictal period) the EEG recording was taken. Then the other series of ABR and EEG recordings were taken at specific times within the post-ictal period. After two weeks the same series of recordings was taken but instead vehicle the animals were injected with vinpocetine (2 mg/kg) 4 hours before the injection of PTZ.
Vinpocetine inhibits all the changes induced by PTZ on the EEG. […] This dramatic change on the cortical activity induced by PTZ in the anaesthetized animals during convulsions is followed by a typical pattern of cortical activity characterized by rhythmic spike bursts of high amplitude. The duration time of this typical pattern of cortical activity, that is not accompanied by convulsions is referred as the post-ictal period.

[4] = system: epilepsy induced by PTZ in guinea pigs; test: ABR wave parameters (amplitude, latency) in PTZ-induced epilepsy; format: in vivo, guinea pig; conditions: 100 dB
Description: as §1, §2, §3, §4, §6

[5] = system: presynaptic Na+ channels; conditions: brain isolated nerve endings; Sitges and Nekrassov 1999; Trejo et al. 2001; cited from earlier work
[6] = system: epileptic cortical activity induced by 4-AP in guinea pigs; test: EEG recordings of cortical activity in 4-AP-induced epilepsy; format: in vivo, guinea pig; conditions: ictal (about 20 min) and post-ictal (30, 60, 80 min) periods; vinpocetine 2 mg/kg 1 h before 4-AP; FIGS. 6, 7
Description: as §1, §2, §5
Vinpocetine inhibits all the changes induced by 4-AP on the EEG. […] This change on the cortical activity elicited by 4-AP for the ictal period is followed by the post-ictal period characterized by isolated spikes of higher amplitude that appear on the EEG about one hour after the injection of 4-AP. […] The top traces of FIG. 6 show the characteristic EEG recordings taken before the injection of 4-AP in the animals pre-injected with vehicle (a) and in the animals pre-injected with vinpocetine (b). The changes induced by 4-AP on for the ictal period are shown in the second trace on FIG. 6a. In the vinpocetine treated animals 4-AP was unable to induce the ictal activity (second trace on FIG. 6b).

[7] = system: humans; conditions: doses as high as 60 mg/day; Hindmarch et al. 1991; cited from earlier work
[8] = system: hearing loss induced by 4-AP in guinea pigs; test: ABR (auditory) threshold in 4-AP-induced epilepsy; format: in vivo, guinea pig
Description: as §1, §2
Determination of ABR thresholds. ABR recordings elicited by stimuli of progressively lower intensity (in dB) were used for determining the hearing threshold. Threshold is defined as the lowest stimulus intensity (in dB) at which the P3 wave of the ABR could still be recorded in three consecutive trials.
as §4, §5

[9] = 4 kHz, 30 min after 4-AP 2 mg/kg i.p., vinpocetine 2 mg/kg or vehicle 1 h before 4-AP
[10] = 4 kHz, 60 min after 4-AP 2 mg/kg i.p., vinpocetine 2 mg/kg or vehicle 1 h before 4-AP
[11] = 8 kHz, 30 min after 4-AP 2 mg/kg i.p., vinpocetine 2 mg/kg or vehicle 1 h before 4-AP
[12] = 8 kHz, 60 min after 4-AP 2 mg/kg i.p., vinpocetine 2 mg/kg or vehicle 1 h before 4-AP

CCOC(=O)C1=C[C@]2(CC)CCCN3CCc4c(n1c1ccccc41)[C@@H]32 [Vinpocetine, ethyl apovincamine-22-oate]
protective action over changes in ABR waves, hearing loss and mortality induced by amikacin [1]: long term (more than half a year) protective action
latency of the P4 wave of the ABR [2, 9]: 3.37 ± 0.06 ms
latency of the P4 wave of the ABR [2, 10]: 3.54 ± 0.11 ms
latency of the P4 wave of the ABR ([2]; 4 kHz, 80 min after 4-AP 2 mg/kg i.p., vinpocetine 2 mg/kg or vehicle 1 h before 4-AP): 3.56 ± 0.04 ms
latency of the P4 wave of the ABR ([2]; 4 kHz, 100 min after 4-AP 2 mg/kg i.p., vinpocetine 2 mg/kg or vehicle 1 h before 4-AP): 3.43 ± 0.09 ms
latency of the P4 wave of the ABR ([2]; 4 kHz, before 4-AP injection, 1 h after vinpocetine 2 mg/kg, 5 animals): 3.45 ± 0.06 ms
latency of the P4 wave of the ABR [2, 11]: 3.55 ± 0.07 ms
latency of the P4 wave of the ABR [2, 12]: 3.45 ± 0.08 ms
latency of the P4 wave of the ABR ([2]; 8 kHz, 80 min after 4-AP 2 mg/kg i.p., vinpocetine 2 mg/kg or vehicle 1 h before 4-AP): 3.36 ± 0.05 ms
latency of the P4 wave of the ABR ([2]; 8 kHz, 100 min after 4-AP 2 mg/kg i.p., vinpocetine 2 mg/kg or vehicle 1 h before 4-AP): 3.35 ± 0.07 ms
latency of the P4 wave of the ABR ([2]; 8 kHz, before 4-AP injection, 1 h after vinpocetine 2 mg/kg, 5 animals): 3.48 ± 0.04 ms
progressive increase in the amplitude of the P3 wave of the ABR produced by 4-AP ([2]; 8 kHz, vinpocetine 2 mg/kg 1 h before 4-AP, FIG. 5a,b): eliminated
reduction in P4 amplitude produced by 4-AP ([2]; 8 kHz, vinpocetine 2 mg/kg 1 h before 4-AP, FIG. 5c,d): markedly reduced
effect on changes on the cortical activity (EEG) induced by PTZ [3]: completely inhibits
effect on the increase in latencies of the ABR waves P2, P3 and P4 produced by PTZ ([4]; 4 and 8 kHz, vinpocetine 2 mg/kg 4 h before PTZ, FIG. 2): inhibits the increase
P4 wave peak amplitude of the ABR ([4]; 4 kHz, 10 min after PTZ 100 mg/kg i.p., vinpocetine 2 mg/kg or vehicle 4 h before PTZ): 2.55 ± 0.3 μV
P4 wave peak amplitude of the ABR ([4]; 4 kHz, 20 min after PTZ 100 mg/kg i.p., vinpocetine 2 mg/kg or vehicle 4 h before PTZ): 2.52 ± 0.2 μV
P4 wave peak amplitude of the ABR ([4]; 4 kHz, 30 min after PTZ 100 mg/kg i.p., vinpocetine 2 mg/kg or vehicle 4 h before PTZ): 2.55 ± 0.2 μV
P4 wave peak amplitude of the ABR ([4]; 4 kHz, 50 min after PTZ 100 mg/kg i.p., vinpocetine 2 mg/kg or vehicle 4 h before PTZ): 2.52 ± 0.2 μV
P4 wave peak amplitude of the ABR ([4]; 4 kHz, before PTZ injection, 4 h after vinpocetine 2 mg/kg, mean±SEM, 8 animals): 2.82 ± 0.3 μV
P4 wave peak amplitude of the ABR ([4]; 8 kHz, 10 min after PTZ 100 mg/kg i.p., vinpocetine 2 mg/kg or vehicle 4 h before PTZ): 2.56 ± 0.1 μV
P4 wave peak amplitude of the ABR ([4]; 8 kHz, 20 min after PTZ 100 mg/kg i.p., vinpocetine 2 mg/kg or vehicle 4 h before PTZ): 2.71 ± 0.2 μV
P4 wave peak amplitude of the ABR ([4]; 8 kHz, 30 min after PTZ 100 mg/kg i.p., vinpocetine 2 mg/kg or vehicle 4 h before PTZ): 2.55 ± 0.2 μV
P4 wave peak amplitude of the ABR ([4]; 8 kHz, 50 min after PTZ 100 mg/kg i.p., vinpocetine 2 mg/kg or vehicle 4 h before PTZ): 2.56 ± 0.1 μV
P4 wave peak amplitude of the ABR ([4]; 8 kHz, before PTZ injection, 4 h after vinpocetine 2 mg/kg, mean±SEM, 8 animals): 2.69 ± 0.1 μV
neurotransmitter release induced by an increase in presynaptic Na+ channels permeability [5]: selectively inhibits
effect on changes on the cortical activity (EEG) induced by 4-AP [6]: completely prevents
tolerability in humans [7]: well tolerated and without contraindications
auditory threshold [8, 9]: 11.3 ± 1.3 dB
auditory threshold [8, 10]: 11.3 ± 1.3 dB
auditory threshold ([8]; 4 kHz, before 4-AP injection, 1 h after vinpocetine 2 mg/kg): 13.8 ± 1.3 dB
auditory threshold [8, 11]: −1.3 ± 2.4 dB
auditory threshold [8, 12]: 0.0 ± 3.5 dB
auditory threshold ([8]; 8 kHz, before 4-AP injection, 1 h after vinpocetine 2 mg/kg): 2.5 ± 1.4 dB
